Results on eleven compounds are retold here after ChEMBL document CHEMBL5338754, “Identification of Binding Sites in the Nucleotide-Binding Domain of P-Glycoprotein for a Potent and Nontoxic Modulator, the Amine-Containing Monomeric Flavonoid FM04” (J Med Chem, 2023).

Series [1] addresses T1, ATP-dependent translocase ABCB1 (Homo sapiens, UniProt P08183). As to the kind of experiment: Negative allosteric modulator activity at P-gp in human LCC6MDR cells overexpressing P-gp assessed as reversal of P-gp mediated paclitaxel resistance activity by measuring relative fold at 1 uM incubated for 5 days by MTS assay. Type of series: cell-based. The settings on record: 120 h, time 5 day.

Series [2] has as its target T1, ATP-dependent translocase ABCB1. As to the kind of experiment: Negative allosteric modulator activity at P-gp in human LCC6MDR cells assessed as increase in intracellular doxorubicin accumulation using doxorubicin as substrate incubated for 150 mins by microplate reader assay. Type of series: cell-based. The note with it: 2.5 h.
The target is the same in series [3]. The experiment in a line: Binding affinity to P-glycoprotein in human LCC6MDR cells assessed as stabilization of protein by measuring fluorescence at 1 uM incubated for 1 hr by Western blotting analysis. Type of series: cell-based. On the technique in general: In western blotting, separated proteins are transferred to a membrane and probed.
For series [4] the target is unchanged. As to the kind of experiment: Binding affinity to human P-glycoprotein expressed in LCC6MDR cells assessed as stabilization of protein by measuring fluorescence at 1 uM incubated for 1 hr by Western blotting analysis. The class given is cell-based.
Series [5] addresses T2, ATP-dependent translocase ABCB1 (Mus musculus, UniProt P06795). As to the kind of experiment: Binding affinity to mouse P-glycoprotein expressed in Pichia pastoris assessed as stabilization of protein by measuring fluorescence at 1000 uM incubated for 2 hr by Streptavidin-pull down blotting assay.
Series [6] has as its target T2, ATP-dependent translocase ABCB1. As to the kind of experiment: Binding affinity to mouse P-glycoprotein expressed in Pichia pastoris assessed as stabilization of protein by measuring fluorescence at 100 uM incubated for 2 hr by Streptavidin-pull down blotting assay.
For series [7] the target is unchanged. As to the kind of experiment: Binding affinity to biotin-labeled mouse P-glycoprotein expressed in Pichia pastoris assessed as stabilization of protein by measuring fluorescence at 100 uM incubated for 2 hr by Streptavidin-HRP blotting assay.
For series [8] the target is unchanged. The experiment in a line: Binding affinity to mouse P-glycoprotein expressed in Pichia pastoris assessed as stabilization of protein by measuring fluorescence at 100 uM incubated for 2 hr by Streptavidin-HRP blotting assay.
Series [9] shares this target. The experiment in a line: Binding affinity to mouse P-glycoprotein expressed in Pichia pastoris assessed as stabilization of protein by measuring fluorescence at 1 uM by Western blotting analysis.
The target in series [10] is T1, ATP-dependent translocase ABCB1. As to the kind of experiment: Binding affinity to human P-glycoprotein expressed in LCC6MDR cells assessed as stabilization of protein by measuring fluorescence at 0.1 to 1 uM by Western blotting analysis. The class given is cell-based. The note with it: dose 0.1-1 µM.
The target in series [11] is T2, ATP-dependent translocase ABCB1. The experiment in a line: Displacement of FM04 from mouse P-glycoprotein expressed in Pichia pastoris at 1 uM by competitive binding assay.
For series [12], the target named is T1, ATP-dependent translocase ABCB1. The experiment in a line: Displacement of FM-04 from human P-glycoprotein expressed in LCC6MDR cells at 1 uM by competitive binding assay. The class given is cell-based.

T1 sequence (P08183 whole entry): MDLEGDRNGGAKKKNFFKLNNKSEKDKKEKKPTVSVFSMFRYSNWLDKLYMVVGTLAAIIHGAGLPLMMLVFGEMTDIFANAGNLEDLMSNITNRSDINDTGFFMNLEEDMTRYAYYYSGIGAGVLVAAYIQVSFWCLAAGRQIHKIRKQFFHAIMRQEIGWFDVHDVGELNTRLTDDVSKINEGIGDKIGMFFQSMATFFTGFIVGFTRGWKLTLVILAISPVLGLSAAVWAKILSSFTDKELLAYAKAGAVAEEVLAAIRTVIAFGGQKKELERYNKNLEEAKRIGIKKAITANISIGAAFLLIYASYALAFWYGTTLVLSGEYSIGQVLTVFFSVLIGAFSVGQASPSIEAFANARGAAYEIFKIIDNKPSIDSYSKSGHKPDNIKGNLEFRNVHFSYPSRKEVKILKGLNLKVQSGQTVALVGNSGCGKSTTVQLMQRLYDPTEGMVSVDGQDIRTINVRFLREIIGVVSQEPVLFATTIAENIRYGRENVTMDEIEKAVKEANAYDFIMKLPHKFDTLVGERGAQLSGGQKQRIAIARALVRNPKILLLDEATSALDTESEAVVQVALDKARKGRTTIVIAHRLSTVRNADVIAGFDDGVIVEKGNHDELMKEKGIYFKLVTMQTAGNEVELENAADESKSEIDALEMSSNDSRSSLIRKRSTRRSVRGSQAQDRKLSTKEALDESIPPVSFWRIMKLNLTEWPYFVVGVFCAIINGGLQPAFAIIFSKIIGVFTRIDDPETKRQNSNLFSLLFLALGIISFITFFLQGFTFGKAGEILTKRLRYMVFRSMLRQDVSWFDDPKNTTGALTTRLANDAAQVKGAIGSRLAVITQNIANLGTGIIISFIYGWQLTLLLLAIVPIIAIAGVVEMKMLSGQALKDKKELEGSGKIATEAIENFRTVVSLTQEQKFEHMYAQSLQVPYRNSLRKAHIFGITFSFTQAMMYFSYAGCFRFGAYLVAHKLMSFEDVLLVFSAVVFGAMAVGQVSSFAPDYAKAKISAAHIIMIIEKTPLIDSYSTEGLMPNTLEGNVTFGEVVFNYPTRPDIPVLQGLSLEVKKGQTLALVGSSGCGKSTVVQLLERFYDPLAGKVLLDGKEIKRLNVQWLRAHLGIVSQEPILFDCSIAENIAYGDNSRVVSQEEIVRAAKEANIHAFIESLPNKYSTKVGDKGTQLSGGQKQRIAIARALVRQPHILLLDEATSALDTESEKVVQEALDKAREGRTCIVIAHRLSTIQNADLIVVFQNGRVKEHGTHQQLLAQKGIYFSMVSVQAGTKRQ
T2 sequence (P06795 whole entry): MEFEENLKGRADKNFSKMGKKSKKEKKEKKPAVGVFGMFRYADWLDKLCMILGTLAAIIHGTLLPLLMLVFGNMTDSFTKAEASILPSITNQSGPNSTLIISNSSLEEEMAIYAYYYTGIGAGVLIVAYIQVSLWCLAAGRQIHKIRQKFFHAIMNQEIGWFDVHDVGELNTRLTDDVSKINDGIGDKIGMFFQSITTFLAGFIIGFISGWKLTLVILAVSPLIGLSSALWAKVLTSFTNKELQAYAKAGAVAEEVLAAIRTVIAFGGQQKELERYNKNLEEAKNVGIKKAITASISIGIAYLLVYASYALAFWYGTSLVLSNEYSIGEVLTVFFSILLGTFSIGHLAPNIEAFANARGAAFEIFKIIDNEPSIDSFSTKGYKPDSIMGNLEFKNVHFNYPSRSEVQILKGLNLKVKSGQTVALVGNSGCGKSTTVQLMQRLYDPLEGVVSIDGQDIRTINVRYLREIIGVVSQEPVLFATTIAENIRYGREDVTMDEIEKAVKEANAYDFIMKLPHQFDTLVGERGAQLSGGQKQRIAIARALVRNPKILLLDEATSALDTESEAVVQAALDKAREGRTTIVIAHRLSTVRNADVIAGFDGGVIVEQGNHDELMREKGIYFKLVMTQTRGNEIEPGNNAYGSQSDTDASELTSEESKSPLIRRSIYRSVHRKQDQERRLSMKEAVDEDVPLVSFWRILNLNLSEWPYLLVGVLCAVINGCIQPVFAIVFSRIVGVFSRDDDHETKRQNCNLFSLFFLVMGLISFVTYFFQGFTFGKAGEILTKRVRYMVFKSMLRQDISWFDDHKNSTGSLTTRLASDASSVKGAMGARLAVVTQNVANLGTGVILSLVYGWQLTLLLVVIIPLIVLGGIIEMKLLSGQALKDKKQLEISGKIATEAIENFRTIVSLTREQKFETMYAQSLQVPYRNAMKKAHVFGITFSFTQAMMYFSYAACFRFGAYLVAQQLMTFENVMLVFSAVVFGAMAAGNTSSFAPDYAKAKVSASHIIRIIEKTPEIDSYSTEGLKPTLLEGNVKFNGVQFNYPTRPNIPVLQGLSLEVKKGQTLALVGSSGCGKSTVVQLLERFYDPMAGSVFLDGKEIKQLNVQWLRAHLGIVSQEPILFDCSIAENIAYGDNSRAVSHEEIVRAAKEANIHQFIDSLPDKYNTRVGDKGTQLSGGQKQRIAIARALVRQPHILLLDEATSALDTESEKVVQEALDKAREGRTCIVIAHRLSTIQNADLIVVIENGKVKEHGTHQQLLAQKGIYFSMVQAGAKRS

For the compound `O=c1cc(-c2ccc(OCCOCCOCCOCCOc3ccc(-c4cc(=O)c5c(O)cc(O)cc5o4)cc3)cc2)oc2cc(O)cc(O)c12`, the “fold change (FC)” value in series [1] was found to be 11.

For `O=c1cc(-c2ccc(OCCOCCN(CCOCCOc3ccc(-c4cc(=O)c5ccccc5o4)cc3)Cc3ccccc3)cc2)oc2ccccc12`, the “fold change (FC)” value in [1] is 68.

As to `O=c1cc(-c2ccc(OCCOCCOCCOCCOc3ccc(-c4cc(=O)c5ccccc5o4)cc3)cc2)oc2ccccc12`, the “fold change (FC)” value in [1] is 28.

Turning to `O=c1cc(-c2ccc(OCCOCCNCc3ccc(C4(C(F)(F)F)N=N4)cc3)cc2)oc2ccccc12`, in series [1], the “fold change (FC)” value is listed as 56.3. The result in [2] was Active.

Take `C#CCN(CCOCCOc1ccc(-c2cc(=O)c3ccccc3o2)cc1)Cc1ccc(C2(C(F)(F)F)N=N2)cc1`: the “fold change (FC)” value in series [1] came out at 2.3. The Activity entry in series [3] and in series [4] was “Not Active” in each case.

Consider `O=c1cc(-c2ccc(OCCOCCN(Cc3ccc(C4(C(F)(F)F)N=N4)cc3)Cc3ccc(C4(C(F)(F)F)N=N4)cc3)cc2)oc2ccccc12`, for which the “fold change (FC)” value in series [1] was 0.8.

As for `C#CCOc1cccc2oc(-c3ccc(OCCOCCNCc4ccc(C5(C(F)(F)F)N=N5)cc4)cc3)cc(=O)c12`, the “fold change (FC)” value in [1] stood at 92.6. In addition, the Activity result in series [2] is listed as “Active”; in series [5] it was “Active”; in [6], “Active”; in series [7], “Active”; in series [8] it was “Not Active”; in series [9], “Active”. The Activity result is “Dose-Dependent Effect” in series [10]; “Not Active” in series [3]; “Not Active” in series [11]; “Not Active” in series [12]; “Active” in [4].

As to `C#CCNc1cc(C)cc2c(=O)cc(-c3ccc(OCCOCCNCc4ccc(C5(C(F)(F)F)N=N5)cc4)cc3)oc12`, in series [1], the “fold change (FC)” value is on record as 0.5. Further, the Activity result in series [3] and in series [4] was “Not Active” each time.

On to `C#CCNc1cc(C)cc2c(=O)cc(-c3ccc(OCCOCCN(Cc4ccc(C5(C(F)(F)F)N=N5)cc4)Cc4ccc(C5(C(F)(F)F)N=N5)cc4)cc3)oc12`, for which the “fold change (FC)” value in series [1] came out at 0.4.

As for `[N-]=[N+]=NCc1cc(CNCCOCCOc2ccc(-c3cc(=O)c4ccccc4o3)cc2)cc(N=[N+]=[N-])c1`, the “fold change (FC)” value in series [1] is 61.7. In addition, the Activity entry is “Active” in series [2], “Not Active” in series [3] and “Active” in [4].

For `O=c1cc(-c2ccc(O)cc2)oc2cc(O)cc(O)c12` [APIGENIN], the “fold change (FC)” value in [1] is reported as 1.
